From US20250223281A1, “ANTIDIABETIC COMPOUNDS AND COMPOSITIONS” (REZUBIO PHARMACEUTICALS CO., LTD, priority 2022, published 2025)

Biological target: T1, GPR40 (Homo sapiens, UniProt O14842)
T1 construct: expressed in transfected cells; host or cells: HEK293 cells stably expressing GPR40 (Hygromycin selection)
Experiment: IP1 accumulation assay in HEK293 cells stably expressing GPR40
Format: cell-based
Procedure: IP1 accumulation assay was used to evaluate the potency of compounds. HEK293 cells stably expressing GPR40 were cultured in 5% CO2 incubator (ThermoFisher) in maintenance media (Dulbecco's modified Eagle's medium with 4.5 g/L of glucose, 10% fetal bovine serum, 100 μg/mL Hygromycin, and Penicillin (100 U/mL)/Streptomycin (100 μg/mL)) till 100% confluency. Cells were harvested freshly, spun down at 300×g for 5 min, and resuspended in pre-warmed 1× stimulant buffer from Cisbio IP-One HTRF Detection kit (Cisbio). Cell density was adjusted to 2.0×10^6 cells/mL. DMSO was used as blank control and AMG-1638 (CAS #: 1142214-62-7) as positive control. Compounds were prepared at 10 mM in DMSO and 5 nL of 3× serially diluted compounds (10 concentrations) were added to each well of the 384-LDV assay plate (Corning) by using ECHO 550 (Labcyte). Five μL of cells in suspension were transferred into each well by using Multidrop Combi Reagent Dispenser (ThermoFisher). Assay plate was then sealed and incubated at 37° C. for 2 hours. IP-d2 reagent and anti-IP1 reagent were prepared following the manual (Cisbio). Five μL of IP1-d2 and then 5 μL of anti-IP1 antibody was added to each well sequentially. Assay plate was incubated at room temperature for 60 min and then read at 665 nm/615 nm on an Envision plate reader (PerkinElmer). The ratio of values obtained at 665 nm and 615 nm was used for calculation of IP1 accumulation: % Effect=(Ratiosample−Ratioblank)/(RatioAMG-1638−Ratioblank)×100. Dose curve was fitted and EC50 of each compound was calculated by using XLFit.

[1] = IP1 accumulation, HEK293 cells stably expressing GPR40, 2 hours at 37° C., % effect relative to AMG-1638, table of Biological Example 1
[2] = Table A-8 (additional examples), obtained by methods of Biological Example 1
[3] = Tables A-1a to A-7b (structure-property relationship), obtained by methods of Biological Example 1

T1 sequence (O14842 whole entry): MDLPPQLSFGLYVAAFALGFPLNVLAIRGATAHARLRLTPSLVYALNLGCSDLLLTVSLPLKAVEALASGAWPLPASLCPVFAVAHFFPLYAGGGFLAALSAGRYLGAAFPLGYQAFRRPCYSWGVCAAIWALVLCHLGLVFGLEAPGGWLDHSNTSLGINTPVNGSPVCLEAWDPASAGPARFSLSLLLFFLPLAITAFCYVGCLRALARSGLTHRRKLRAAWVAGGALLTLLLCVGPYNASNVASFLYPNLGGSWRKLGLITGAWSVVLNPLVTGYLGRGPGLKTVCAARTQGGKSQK

| SMILES | EC50 [1] | EC50 [2] | EC50 [3] |
| --- | --- | --- | --- |
| C[C@H](C(=O)O)[C@H](c1ccc2c(c1)O[C@@H](C1CCN(Cc3cc(-n4cc(CCCCCCCCCCCCC(=O)NCCN(CCC(=O)NCCN)CCC(=O)NCCN)nn4)ccc3OC(F)(F)F)CC1)CC2)C1CC1 [Example 1, (2S,3R)-3-((R)-2-(1-(5-(4-(13-((2-(bis(3-((2-aminoethyl)amino)-3-oxopropyl)amino)ethyl)amino)-13-oxotridecyl)-1H-1,2,3-triazol-1-yl)-2-(trifluoromethoxy)benzyl)piperidin-4-yl)chroman-7-yl)-3-cyclopropyl-2-methylpropanoic acid] | 5.46 nM | 5.46 nM | 5.46 nM |
| C[C@H](C(=O)O)[C@H](c1ccc2c(c1)O[C@@H](C1CCN(Cc3cc(-n4cc(CCCCCCCCCCCCC(=O)NCC[N+](C)(CCC(=O)NCCN)CCC(=O)NCCN)nn4)ccc3OC(F)(F)F)CC1)CC2)C1CC1 [Example 2] | 9.46 nM | 9.46 nM | 9.46 nM |
| C[C@H](C(=O)O)[C@H](c1ccc2c(c1)O[C@@H](C1CCN(Cc3cc(-n4cc(CCCCCCCCCCCCCCCCCC(=O)NCCN(CCC(=O)NCCN)CCC(=O)NCCN)nn4)ccc3OC(F)(F)F)CC1)CC2)C1CC1 [Example 3] | 1.1 nM |  | 1.1 nM |
| C[C@H](C(=O)O)[C@H](c1ccc2c(c1)O[C@@H](C1CCN(Cc3cc(-n4cc(CCCCCCCCCCCCCCCCCC(=O)NCC[N+](C)(CCC(=O)NCCN)CCC(=O)NCCN)nn4)ccc3OC(F)(F)F)CC1)CC2)C1CC1 [Example 4] | 0.31 nM |  | 0.31 nM |
| C[C@H](C(=O)O)[C@H](c1ccc2c(c1)O[C@@H](C1CCN(Cc3cc(-c4cn(CCCCCCCCCCCCCC(=O)NCCN(CCC(=O)NCCN)CCC(=O)NCCN)nn4)ccc3OC(F)(F)F)CC1)CC2)C1CC1 [Example 5] | 15.2 nM |  | 15.2 nM |
| C[C@H](C(=O)O)[C@H](c1ccc2c(c1)O[C@@H](C1CCN(Cc3cc(-c4cn(CCCCCCCCCCCCCCCCCC(=O)NCCN(CCC(=O)NCCN)CCC(=O)NCCN)nn4)ccc3OC(F)(F)F)CC1)CC2)C1CC1 [Example 6] | 1.21 nM |  | 1.21 nM |
| C[C@H](C(=O)O)[C@H](c1ccc2c(c1)O[C@@H](C1CCN(Cc3cc(-c4cn(CCCCCCCCCCCCCCCCCC(=O)NCC[N+](C)(CCC(=O)NCCN)CCC(=O)NCCN)nn4)ccc3OC(F)(F)F)CC1)CC2)C1CC1 [Example 7] | 0.65 nM |  | 0.65 nM |
| COc1ccc(F)c(-c2ccc(COc3cccc([C@@H](CC(=O)O)C4CC4)c3)cc2C(C)(C)c2cn(CCCCCCCCCCCCCC(=O)NCCN(CCC(=O)NCCN)CCC(=O)NCCN)nn2)c1 [Example 8] | > 1000 nM |  |  |
| COc1ccc(F)c(-c2ccc(COc3cccc([C@@H](CC(=O)O)C4CC4)c3)cc2C(C)(C)c2cn(CCCCCCCCCCCCCC(=O)NCC[N+](C)(CCC(=O)NCCN)CCC(=O)NCCN)nn2)c1 [Example 9] | 640 nM |  |  |
| COc1ccc(F)c(-c2ccc(COc3cccc([C@@H](CC(=O)O)C4CC4)c3)cc2C(C)(C)c2cn(CCCCCCCCCCCCCCCCCC(=O)NCCN(CCC(=O)NCCN)CCC(=O)NCCN)nn2)c1 [Example 10] | 32.7 nM |  |  |
| COc1ccc(F)c(-c2ccc(COc3cccc([C@@H](CC(=O)O)C4CC4)c3)cc2C(C)(C)c2cn(CCCCCCCCCCCCCCCCCC(=O)NCC[N+](C)(CCC(=O)NCCN)CCC(=O)NCCN)nn2)c1 [Example 11] | 20.3 nM |  |  |
| COc1ccc(F)c(-c2ccc(COc3cccc([C@@H](CC(=O)O)C4CC4)c3)cc2C(OCCCCCn2cc(CCCCCCCCCCCCCCCCCC(=O)NCCN(CCC(=O)NCCN)CCC(=O)NCCN)nn2)C(C)(C)C)c1 (stereo partly shown) [Example 12] | 1.12 nM |  |  |
| COc1ccc(F)c(-c2ccc(COc3cccc([C@@H](CC(=O)O)C4CC4)c3)cc2C(OC)C(C)(C)Cn2cc(CCCCCCCCCCCCCCCCCC(=O)NCCN(CCC(=O)NCCN)CCC(=O)NCCN)nn2)c1 (stereo partly shown) [Example 14] | 8.8 nM |  |  |
| COc1ccc(F)c(-c2ccc(COc3cccc([C@@H](CC(=O)O)C4CC4)c3)cc2C(OC)C(C)(C)Cn2cc(CCCCCCCCCCCCCCCCCC(=O)NCC[N+](C)(CCC(=O)NCCN)CCC(=O)NCCN)nn2)c1 (stereo partly shown) [Example 15] | 58.4 nM |  |  |
| COc1ccc(F)c(-c2ccc(COc3cccc([C@@H](CC(=O)O)C4CC4)c3)cc2CC(C)(C)Cn2cc(CCCCCCCCCCCCC(=O)NCCN(CCC(=O)NCCN)CCC(=O)NCCN)nn2)c1 [Example 16] | 460 nM | 706 nM | 460 nM |
| COc1ccc(F)c(-c2ccc(COc3cccc([C@@H](CC(=O)O)C4CC4)c3)cc2CC(C)(C)Cn2cc(CCCCCCCCCCCCC(=O)NCC[N+](C)(CCC(=O)NCCN)CCC(=O)NCCN)nn2)c1 [Example 17] | 152 nM | 169 nM | 152 nM |
| COc1ccc(F)c(-c2ccc(COc3cccc([C@@H](CC(=O)O)C4CC4)c3)cc2CC(C)(C)Cn2cc(CCCCCCCCCCCCCCCCCC(=O)NCCN(CCC(=O)NCCN)CCC(=O)NCCN)nn2)c1 [Example 18] | 2.25 nM |  | 2.25 nM |
| COc1ccc(F)c(-c2ccc(COc3cccc([C@@H](CC(=O)O)C4CC4)c3)cc2CC(C)(C)Cn2cc(CCCCCCCCCCCCCCCCCC(=O)NCC[N+](C)(CCC(=O)NCCN)CCC(=O)NCCN)nn2)c1 [Example 19] | 1.66 nM |  | 1.66 nM |
| COc1ccc(F)c(-c2ccc(COc3cccc([C@@H](CC(=O)O)C4CC4)c3)cc2CC(C)(C)Cc2cn(CCCCCCCCCCCCCC(=O)NCCN(CCC(=O)NCCN)CCC(=O)NCCN)nn2)c1 [Example 21] | 49.4 nM |  | 49 nM |
| COc1ccc(F)c(-c2ccc(COc3cccc([C@@H](CC(=O)O)C4CC4)c3)cc2CC(C)(C)Cc2cn(CCCCCCCCCCCCCC(=O)NCC[N+](C)(CCC(=O)NCCN)CCC(=O)NCCN)nn2)c1 [Example 22] | 49 nM |  | 49 nM |
| COc1ccc(F)c(-c2ccc(COc3cccc([C@@H](CC(=O)O)C4CC4)c3)cc2CC(C)(C)Cc2cn(CCCCCCCCCCCCCCCCCC(=O)NCCN(CCC(=O)NCCN)CCC(=O)NCCN)nn2)c1 [Example 23] | 0.96 nM |  | 0.96 nM |
| COc1ccc(F)c(-c2ccc(COc3cccc([C@@H](CC(=O)O)C4CC4)c3)cc2CC(C)(C)Cc2cn(CCCCCCCCCCCCCCCCCC(=O)NCC[N+](C)(CCC(=O)NCCN)CCC(=O)NCCN)nn2)c1 [Example 24] | 2.04 nM |  | 2.04 nM |
| COc1ccc(F)c(-c2ccc(COc3cccc([C@@H](CC(=O)O)C4CC4)c3)cc2OC(C)(C)COCc2cn(CCCCCCCCCCCCCC(=O)NCCN(CCC(=O)NCCN)CCC(=O)NCCN)nn2)c1 [Example 25] | 132 nM |  |  |
| COc1ccc(F)c(-c2ccc(COc3cccc([C@@H](CC(=O)O)C4CC4)c3)cc2OC(C)(C)COCc2cn(CCCCCCCCCCCCCC(=O)NCC[N+](C)(CCC(=O)NCCN)CCC(=O)NCCN)nn2)c1 [Example 26] | 75.8 nM |  |  |
| COc1ccc(F)c(-c2ccc(COc3cccc([C@@H](CC(=O)O)C4CC4)c3)cc2OC(C)(C)COCc2cn(CCCCCCCCCCCCCCCCCC(=O)NCCN(CCC(=O)NCCN)CCC(=O)NCCN)nn2)c1 [Example 27] | 5.32 nM |  |  |
| COc1ccc(F)c(-c2ccc(COc3cccc([C@@H](CC(=O)O)C4CC4)c3)cc2OC(C)(C)COCc2cn(CCCCCCCCCCCCCCCCCC(=O)NCC[N+](C)(CCC(=O)NCCN)CCC(=O)NCCN)nn2)c1 [Example 28] | 4.77 nM |  |  |
| COc1ccc(F)c(-c2ccc(COc3cccc([C@@H](CC(=O)O)C4CC4)c3)cc2OC(C)(C)Cn2cc(CCCCCCCCCCCCC(=O)NCCN(CCC(=O)NCCN)CCC(=O)NCCN)nn2)c1 [Example 29] | > 1000 nM |  |  |
